Assay results published in PMC12051030, “Identification of inhibitors of the Salmonella FraB deglycase, a drug target” (FEBS Open Bio, 2025).
Where two headings read alike, the source gives them in different places.

Experiments:
[1] = molecular target: His6‐FraB (Salmonella FraB deglycase) (Salmonella enterica subsp. enterica serovar Typhimurium, UniProt Q8ZLD0); assay: FraB-G6PD coupled assay, Michaelis–Menten analysis for K I and mode of inhibition; format: biochemical
Method in brief: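 His6-FraB (100 nM) coupled to G6PD with 0.5 mM NAD+ in 25 mM HEPES pH 8.0, 5 mM MgCl2, 10% DMSO at 20 °C; 8–12 6-P-F-Asp concentrations against 3–5 inhibitor levels.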

FraB = FraB (Salmonella enterica subsp. enterica serovar Typhimurium, UniProt Q8ZLD0); assay: Native MS of FraB–inhibitor complexes; format: binding
Procedure: For MS analysis, FraB was buffer exchanged into 200 mM ammonium acetate (AmAc) (Sigma‐Aldrich) or 66.7 mM ethylenediaminediacetic acid (EDDA) (Sigma‐Aldrich) using micro Bio‐spin P6 spin columns (Bio‐Rad); AmAc and EDDA concentrations were chosen to ensure the same ionic strength. The pH was adjusted to 7.5 by adding ammonium hydroxide solution (Sigma‐Aldrich). 6‐P‐F‐Asp was diluted with water, while three different inhibitors [3470:A09, 3469:F02, and 3469:N17, all purchased from either ChemDiv (San Diego, CA, USA) or Ambinter (Orléans, France)] were diluted in DMSO. The final concentration of DMSO used in the native MS experiments was 4.8% (v/v) or 1% (v/v) for the compounds obtained from ChemDiv or Ambinter, respectively.
For the characterization of FraB–inhibitor complexes, the protein was diluted into 200 mM AmAc and then mixed with inhibitors to final concentrations of 3 μM FraB and 120 μM inhibitor. After adding the inhibitors, the FraB–inhibitor complex was incubated for 20 min at 20 °C before injecting into the mass spectrometry (MS). For the characterization of FraB–inhibitor–substrate complexes, FraB was diluted into 66.7 mM EDDA, mixed with inhibitors, incubated at 20 °C for 20 min, and subsequently mixed with 6‐P‐F‐Asp. The final concentrations were as follows: 3 μM FraB (monomer concentration), 120 μM inhibitor, and 600 μM 6‐P‐F‐Asp.
Native MS experiments were performed on Thermo Q Exactive ultra high mass range (UHMR) Orbitrap. Samples were introduced into the MS instrument by nano‐electrospray ionization, which using glass capillary tips pulled in‐house using a P‐97 micropipette puller (Sutter Instruments, Novato, CA, USA). Each sample (3–5 μL) was loaded into the tips, and the electrospray voltage was set between 0.6 and 1.0 kV. The mass spectrometer was operated in positive mode using the following tuning settings: Capillary temperature: 200 °C detector optimization: low m/z; ion transfer target: high m/z; in‐source trapping (IST): 50 V, except when applying higher IST to disrupt the FraB–inhibitor interactions; HCD trap gas flow: 5; Resolution: 12 500. Mass spectra were collected after the spray stabilized (typically < 5 min) and then examined using XCalibur 4.1 (Thermo Scientific), and deconvolved using UniDec software.

Chain of His6‐FraB (Salmonella FraB deglycase) (Q8ZLD0 entry or part of it): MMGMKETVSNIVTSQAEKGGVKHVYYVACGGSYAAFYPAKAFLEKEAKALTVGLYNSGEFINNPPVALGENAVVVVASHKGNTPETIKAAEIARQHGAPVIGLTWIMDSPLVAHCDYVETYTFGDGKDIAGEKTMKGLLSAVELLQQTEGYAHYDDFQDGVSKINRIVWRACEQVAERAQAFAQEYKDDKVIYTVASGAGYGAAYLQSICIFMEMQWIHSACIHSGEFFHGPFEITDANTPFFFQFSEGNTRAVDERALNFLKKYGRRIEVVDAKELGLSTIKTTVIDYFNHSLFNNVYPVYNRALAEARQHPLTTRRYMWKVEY
Chain of FraB (Q8ZLD0 entry or part of it): as above

`CC(C)Cc1cc(-c2nn3c(-c4ccccc4Cl)nnc3s2)n[nH]1` [3470:A09, 3‐(2‐chlorophenyl)‐6‐[5‐(2‐methylpropyl)‐1H‐pyrazol‐3‐yl]‐[1,2,4]triazolo[3,4‐b][1,3,4]thiadiazole] was tested, and the “change of IC50 values with increasing [S]/K m” value ([1]; 'this trend' = IC50 does not vary with [S]/K m, change evident only from 0.2 to 1.6× [S]/K m) was “modest decrease”, the “slope in plots of 1/IC50 vs. v o/V max” value ([1]; Fig. S12) was “weakly positive” and the IC50 ([1]; Trial 1, 6-P-F-Asp 15.7 µM, S/Km 0.37381, unit from Fig. S11 axis, read-out: IC50 (IC50 versus [S]/Km plots)) was 29.3 µM. It also gave an IC50 ([1]; Trial 1, 6-P-F-Asp 31.3 µM, S/Km 0.745238, unit from Fig. S11 axis, read-out: IC50 (IC50 versus [S]/Km plots)) of 18.8 µM, an IC50 ([1]; Trial 1, 6-P-F-Asp 62.5 µM, S/Km 1.488095, unit from Fig. S11 axis, read-out: IC50 (IC50 versus [S]/Km plots)) of 20.5 µM and an IC50 ([1]; Trial 1, 6-P-F-Asp 125 µM, S/Km 2.97619, unit from Fig. S11 axis, read-out: IC50 (IC50 versus [S]/Km plots)) of 20.2 µM. The IC50 ([1]; Trial 1, 6-P-F-Asp 250 µM, S/Km 5.952381, unit from Fig. S11 axis, read-out: IC50 (IC50 versus [S]/Km plots)) was 20.6 µM, the IC50 ([1]; Trial 1, 6-P-F-Asp 500 µM, S/Km 11.90476, unit from Fig. S11 axis, read-out: IC50 (IC50 versus [S]/Km plots)) was 19.4 µM and the IC50 ([1]; Trial 1, 6-P-F-Asp 750 µM, S/Km 17.85714, unit from Fig. S11 axis, read-out: IC50 (IC50 versus [S]/Km plots)) was 19.5 µM. For the same compound, the IC50 ([1]; Trial 1, 6-P-F-Asp 1000 µM, S/Km 23.80952, unit from Fig. S11 axis, read-out: IC50 (IC50 versus [S]/Km plots)) was 21.3 µM, the IC50 ([1]; Trial 1, 6-P-F-Asp 2000 µM, S/Km 47.61905, unit from Fig. S11 axis, read-out: IC50 (IC50 versus [S]/Km plots)) was 22.7 µM and the IC50 ([1]; Trial 1, 6-P-F-Asp 3000 µM, S/Km 71.42857, unit from Fig. S11 axis, read-out: IC50 (IC50 versus [S]/Km plots)) was 23.2 µM. For the same compound, the IC50 ([1]; Trial 2, 6-P-F-Asp 7.38 µM, S/Km 0.175714, unit from Fig. S11 axis, read-out: IC50 (IC50 versus [S]/Km plots)) was 19 µM, the IC50 ([1]; Trial 2, 6-P-F-Asp 15.7 µM, S/Km 0.37381, unit from Fig. S11 axis, read-out: IC50 (IC50 versus [S]/Km plots)) was 13.6 µM and the IC50 ([1]; Trial 2, 6-P-F-Asp 31.3 µM, S/Km 0.745238, unit from Fig. S11 axis, read-out: IC50 (IC50 versus [S]/Km plots)) was 12.4 µM. The IC50 ([1]; Trial 2, 6-P-F-Asp 62.5 µM, S/Km 1.488095, unit from Fig. S11 axis, read-out: IC50 (IC50 versus [S]/Km plots)) was 12.6 µM, the IC50 ([1]; Trial 2, 6-P-F-Asp 125 µM, S/Km 2.97619, unit from Fig. S11 axis, read-out: IC50 (IC50 versus [S]/Km plots)) was 11.4 µM and the IC50 ([1]; Trial 2, 6-P-F-Asp 250 µM, S/Km 5.952381, unit from Fig. S11 axis, read-out: IC50 (IC50 versus [S]/Km plots)) was 11.6 µM. It also gave an IC50 ([1]; Trial 2, 6-P-F-Asp 500 µM, S/Km 11.90476, unit from Fig. S11 axis, read-out: IC50 (IC50 versus [S]/Km plots)) of 11 µM, an IC50 ([1]; Trial 2, 6-P-F-Asp 750 µM, S/Km 17.85714, unit from Fig. S11 axis, read-out: IC50 (IC50 versus [S]/Km plots)) of 10.9 µM and an IC50 ([1]; Trial 2, 6-P-F-Asp 1000 µM, S/Km 23.80952, unit from Fig. S11 axis, read-out: IC50 (IC50 versus [S]/Km plots)) of 11.3 µM. It also gave an IC50 ([1]; Trial 2, 6-P-F-Asp 2000 µM, S/Km 47.61905, unit from Fig. S11 axis, read-out: IC50 (IC50 versus [S]/Km plots)) of 11.1 µM, an IC50 ([1]; Trial 2, 6-P-F-Asp 3000 µM, S/Km 71.42857, unit from Fig. S11 axis, read-out: IC50 (IC50 versus [S]/Km plots)) of 15.3 µM and a Ki ([1]; from Michaelis–Menten analysis of FraB at different inhibitor concentrations, average and standard error from two measurements, read-out: K I) of 10.5 ± 3.5 µM. For the same compound, the Ki ([1]; independent trial shown in Fig. S11 panels A-L, read-out: KI from α′ vs [I] plot) was 7 µM, the mode of inhibition ([1]; kinetic analyses (Lineweaver‐Burk, α′ vs [I], IC50 vs [S]/K m, 1/IC50 vs v o/V max)) was “mixed‐type uncompetitive” and the IC50 ([1]; single trial shown in Fig. 5, read-out: IC50, mean and standard deviation of all IC50 values in IC50 vs [S]/Km plot) was 13 ± 3 µM. For the same compound, the Ki ([1]; single trial shown in Fig. 5, read-out: KI from α′ vs [I] plot) was 14 µM, the “binding to FraB by native MS (species observed)” value (FraB; 3 μM FraB, 120 μM inhibitor, IST 50 V, E2I/E2I2 = FraB dimer bound to one or two inhibitor copies) was “distinct peaks corresponding to E2I and E2I2” and the “type of FraB–inhibitor interaction (covalent vs noncovalent)” value (FraB; decrease in E2I and E2I2 with increasing IST voltage) was “noncovalent”.
